Results from US20250304587A1, “WEE1 INHIBITOR, PREPARATION THEREFOR AND USE THEREOF” (JIANGSU TASLY DIYI PHARMACEUTICAL CO., LTD., priority 2022, published 2025).

How the values were obtained:
BxPC3 cells = experiment: Cell Titer-Glo anti-proliferation, BxPC3 cells; assay type: cell-based, human; settings: 3 days, read-out: Anti-proliferative activity BxPC3 (IC50 class)
Description: (§1) A. Evaluation of the Anti-Proliferative Effect of Compounds on BxPC3, HT-29 and OVCAR-3 Cells by the Cell Titer-Glo Method
(§2) Compound solutions of different concentration gradients were prepared. […] The cell growth group without compound was used as a positive control (maximum signal control) and the medium was used as a negative control (minimum signal control), while ensuring that the final level of DMSO in each reaction well was 0.2%. After removing the medium from the 384-well plate, 25 μl of the configured compound at different concentrations was transferred into the well plate and the compound and cells were incubated in the cell incubator at 37° C. with 5% CO2 for 3 days.
(§3) The 384-well plates were removed from the cell incubator and allowed to equilibrate for 1 h to room temperature. 25 μl of Cell Titer-Glo assay was added to each well, lysed on a shaker for 2 min and then read out (Luminescence) using a BMG PHERAStar after 10 min incubation. Calculate the inhibition rate from the luminescence signal.
(§4) to calculate the rate of inhibition of the cells by different concentrations of the compounds. The IC50 of the compound on cell activity inhibition was calculated by fitting a log(inhibitor) vs. response-Variable slope model to GraphPad Prism 6. The fitted equation was: Y=Bottom+(Top-Bottom)/(1+10^((Log IC50−X)*HillSlope)), where Y represents the rate of inhibition and X represents the concentration of the known compound after Log.

Wee1 protein = Wee1 protein (Homo sapiens (Human), UniProt P30291); experiment: TR-FRET binding of compound to Wee1 protein and Tracer 178; settings: Tracer 178, read-out: IC50, inhibitory activity against Wee1 kinase
Chain of Wee1 protein (P30291 whole entry): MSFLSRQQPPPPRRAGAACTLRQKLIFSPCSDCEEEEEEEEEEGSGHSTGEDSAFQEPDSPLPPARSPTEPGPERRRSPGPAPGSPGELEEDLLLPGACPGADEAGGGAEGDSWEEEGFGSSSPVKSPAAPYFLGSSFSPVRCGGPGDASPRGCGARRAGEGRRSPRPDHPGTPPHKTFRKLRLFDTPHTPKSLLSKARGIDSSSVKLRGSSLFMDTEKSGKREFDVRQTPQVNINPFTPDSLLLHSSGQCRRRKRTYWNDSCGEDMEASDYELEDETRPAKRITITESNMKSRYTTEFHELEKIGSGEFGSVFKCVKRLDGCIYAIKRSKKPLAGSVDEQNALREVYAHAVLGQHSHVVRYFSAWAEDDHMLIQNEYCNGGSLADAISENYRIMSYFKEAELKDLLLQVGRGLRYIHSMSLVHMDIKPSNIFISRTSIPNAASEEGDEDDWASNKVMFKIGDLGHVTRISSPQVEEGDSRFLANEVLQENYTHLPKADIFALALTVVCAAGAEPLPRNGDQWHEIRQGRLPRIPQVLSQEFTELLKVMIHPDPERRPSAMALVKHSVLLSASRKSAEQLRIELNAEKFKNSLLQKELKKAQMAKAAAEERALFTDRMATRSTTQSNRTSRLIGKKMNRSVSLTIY
Description: First, solutions of the compounds in different concentration gradients were prepared. The compounds were dissolved in DMSO and the compounds were diluted 4 folds with a total of 10 dose points and 2 parallel replicates for each concentration.
The IC50 for inhibition of enzyme activity by the compounds was then calculated using GraphPad Prism 6 and fitted with a log (inhibitor) vs. response-Variable slope mode. The fitting equation was: Y=Bottom+(Top−Bottom)/(1+10^((Log IC50−X)*HillSlope)), where Y represents the percentage of residual enzyme activity known and X represents the known concentration of compound after the logarithm.

HT-29 cells = experiment: Cell Titer-Glo anti-proliferation, HT-29 cells; assay type: cell-based, human; settings: 3 days, read-out: Anti-proliferative activity HT-29 (IC50 class)
Description: as §1, §2, §3, §4

plasma protein = experiment: Plasma protein binding (equilibrium dialysis), mouse; settings: mouse plasma, 1 μM, 5 h dialysis
OVCAR-3 cells = experiment: Cell Titer-Glo anti-proliferation, OVCAR-3 cells; assay type: cell-based; settings: 3 days, read-out: Anti-proliferative activity OVCAR-3 (IC50 class)
Description: as §1, §2, §3, §4

HUVEC cells = experiment: Cell Titer-Glo anti-proliferation, normal cells HUVEC; assay type: cell-based
Description: as §2, §3, §4
(§5) B. Evaluation of the Anti-Proliferative Effect of Compounds by the Cell Titer-Glo Method on Normal Cells HUVEC and HK2.
(§6) The test method is the same as the anti-proliferative activity evaluation of tumor cells.

HK2 cells = experiment: Cell Titer-Glo anti-proliferation, normal cells HK2; assay type: cell-based
Description: as §2, §3, §4, §5, §6

Caco-2 cells = experiment: Membrane permeability in Caco-2 model; assay type: in vitro ADME; settings: for Efflux Ration: Caco2; for Papp A to B / Papp B to A: Caco2, 10 μM, 90 min
Description: Caco-2 cells were purchased from the American Model Tissue Cell Collection (Rockville, MD). The cell culture medium was modified Eagle's medium (MEM) containing 10% inactivated fetal bovine serum and 1% non-essential amino acids. […] The cells were incubated for 21-28 days after inoculation for transport experiments and the apparent permeability (Papp) of Lucifer Yellow was used to characterize and verify the compactness of the cell monolayer. […] After the incubation, dilute the samples on the apical side and basolateral side, and the concentrations of compounds on the apical and basolateral sides were detected by LC-MS/MS, and the concentrations of the compounds were quantified by standard curve.

hERG potassium channel = hERG potassium channel (Homo sapiens (Human), UniProt Q12809); experiment: hERG potassium channel inhibition, patch clamp in CHO hERG cells
Chain of hERG potassium channel (Q12809 whole entry): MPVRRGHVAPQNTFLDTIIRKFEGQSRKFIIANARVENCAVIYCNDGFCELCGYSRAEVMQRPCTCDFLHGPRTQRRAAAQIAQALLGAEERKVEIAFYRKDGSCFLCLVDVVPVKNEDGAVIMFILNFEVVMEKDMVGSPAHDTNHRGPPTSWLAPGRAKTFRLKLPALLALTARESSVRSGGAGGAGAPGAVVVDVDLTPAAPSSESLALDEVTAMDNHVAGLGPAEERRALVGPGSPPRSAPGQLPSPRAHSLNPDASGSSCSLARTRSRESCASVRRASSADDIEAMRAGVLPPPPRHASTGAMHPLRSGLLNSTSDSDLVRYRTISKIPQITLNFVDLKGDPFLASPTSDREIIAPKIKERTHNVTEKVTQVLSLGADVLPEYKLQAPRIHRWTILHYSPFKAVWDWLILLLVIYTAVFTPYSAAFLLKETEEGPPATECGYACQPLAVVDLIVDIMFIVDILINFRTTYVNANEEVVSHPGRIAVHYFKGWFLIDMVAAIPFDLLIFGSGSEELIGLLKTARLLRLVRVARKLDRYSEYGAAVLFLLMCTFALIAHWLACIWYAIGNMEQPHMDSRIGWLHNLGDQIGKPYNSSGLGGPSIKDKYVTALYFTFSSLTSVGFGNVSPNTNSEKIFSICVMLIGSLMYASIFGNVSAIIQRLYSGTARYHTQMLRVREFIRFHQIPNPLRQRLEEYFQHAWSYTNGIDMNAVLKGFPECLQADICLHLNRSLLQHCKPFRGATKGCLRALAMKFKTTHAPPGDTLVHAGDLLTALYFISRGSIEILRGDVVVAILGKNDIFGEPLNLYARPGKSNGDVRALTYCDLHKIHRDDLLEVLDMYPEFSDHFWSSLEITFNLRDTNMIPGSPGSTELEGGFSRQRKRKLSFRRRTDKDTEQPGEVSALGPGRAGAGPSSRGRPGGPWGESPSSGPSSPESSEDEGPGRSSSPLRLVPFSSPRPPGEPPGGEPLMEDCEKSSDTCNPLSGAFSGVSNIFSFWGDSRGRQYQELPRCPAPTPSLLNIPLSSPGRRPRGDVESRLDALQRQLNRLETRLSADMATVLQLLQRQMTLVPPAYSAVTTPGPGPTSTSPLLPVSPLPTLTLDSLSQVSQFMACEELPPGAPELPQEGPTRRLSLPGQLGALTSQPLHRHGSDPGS

Structure (SMILES)	IC50 (BxPC3 cells) [nM]	IC50 (Wee1 protein) [nM]	IC50 (HT-29 cells) [nM]	Plasma Protein binding (PPB) Mouse (plasma protein) [%]	IC50 (OVCAR-3 cells) [nM]	IC50 (HUVEC cells) [nM]	IC50 (HK2 cells) [nM]	Efflux Ration (Caco-2 cells)	Papp A to B (Caco-2 cells)	Papp B to A (Caco-2 cells)	hERG Inhibition (hERG potassium channel; test concentration 5 μM) [%]	hERG Inhibition (hERG potassium channel; test concentration 20 μM) [%]
C=CCn1c(=O)c2cnc(Nc3ccc(N4CCN(C)CC4)cc3)nc2n1-c1ccc2c(c1)N(CC)C(=O)C21CC1 [Compound 1]	5000 to 10000	10 to 100	1000 to 2000									
C=CCn1c(=O)c2cnc(Nc3ccc(N4CCN(C)CC4)cc3)nc2n1-c1ccc2c(n1)C(O)(CC)C1(CC2)CC1 (racemic) [Compound 21]	1000 to 2000		100 to 1000	98.86	100 to 1000							
C=CCn1c(=O)c2cnc(Nc3ccc(N4C[C@H]5CN(C)C[C@H]5C4)cc3)nc2n1-c1ccc2c(n1)C(O)(C(F)(F)F)C1(CC1)C2 (mixture of isomers) [Compound 55]	100 to 1000		100 to 1000		100 to 1000	> 10000	930					
C=CCn1c(=O)c2cnc(Nc3ccc(N4CCN(C)CC4)cc3)nc2n1-c1ccc2c(n1)N(CC)C(=O)C21CCC1 [Compound 2]	2000 to 5000	10 to 100	1000 to 2000									
C=CCn1c(=O)c2cnc(Nc3ccc(N4CCN(C)[C@@H](C)C4)cc3)nc2n1-c1ccc2c(n1)[C@@H](O)C1(CC2)CC1 (single isomer, unassigned) [Compound 56b]	100 to 1000		100 to 1000		100 to 1000	> 10000	990					
C=CCn1c(=O)c2cnc(Nc3ccc(N4CCN(C)CC4)cc3)nc2n1-c1ccc2c(n1)C(C)(O)C1(CC1)C2 (single isomer, unassigned) [Compound 3b]	1000 to 2000		100 to 1000		100 to 1000			17.90	0.73 10^−6 cm/s	13.07 10^−6 cm/s		
C=CCn1c(=O)c2cnc(Nc3ccc(N4CC5CC(C4)N5C(C)C)cc3)nc2n1-c1ccc2c(n1)[C@H](O)C1(CC2)CC1 [Compound 39b]	100 to 1000	5 to 10	100 to 1000		100 to 1000	> 10000	730					
C=CCn1c(=O)c2cnc(Nc3ccc(N4CCN(C(C)C)CC4)cc3)nc2n1-c1ccc2c(n1)[C@@H](O)C1(CC2)CC1 (single isomer, unassigned) [Compound 57b]	100 to 1000		100 to 1000		100 to 1000	> 10000	920					
C=CCn1c(=O)c2cnc(Nc3ccc(N4CCN(C)CC4)cc3)nc2n1-c1ccc2c(n1)[C@@](C)(O)C1(CC2)CC1 [Compound 6a]	1000 to 2000	≤ 5	100 to 1000		100 to 1000							
C=CCn1c(=O)c2cnc(Nc3ccc(N4CC5CC(C4)N5C)cc3)nc2n1-c1ccc2c(n1)C(C)(O)C1(CC2)CC1 (centres unmarked) [Compound 7]	100 to 1000	≤ 5	100 to 1000		100 to 1000						88.02 ± 3.87	95.13 ± 1.06
C=CCn1c(=O)c2cnc(Nc3ccc(N4CC5CC(C4)N5CC)cc3)nc2n1-c1ccc2c(n1)[C@](C)(O)C1(CC2)CC1 (single isomer, unassigned) [Compound 51a]	100 to 1000	≤ 5	100 to 1000		100 to 1000							
C=CCn1c(=O)c2cnc(Nc3ccc(N4CCC5(CCN(C)CC5)CC4)cc3)nc2n1-c1ccc2c(n1)[C@@H](O)C1(CC2)CC1 [Compound 37a]	100 to 1000	5 to 10	100 to 1000		100 to 1000							
[2H][C@]1(O)c2nc(-n3c4nc(Nc5ccc(N6CC7CC(C6)N7C(C)C)cc5)ncc4c(=O)n3CC=C)ccc2CCC12CC2 [Compound 39b]								35.84	0.38 10^−6 cm/s	13.62 10^−6 cm/s	47.26 ± 2.27	67.24 ± 1.32
C=CCn1c(=O)c2cnc(Nc3ccc(N4CCN(C)CC4)c(C)c3)nc2n1-c1ccc2c(n1)[C@@](C)(O)C1(CC2)CC1 (single isomer, unassigned) [Compound 23a]	100 to 1000	≤ 5	100 to 1000		100 to 1000							
C=CCn1c(=O)c2cnc(Nc3ccc(N4CCN(C)[C@@H](C)C4)cc3)nc2n1-c1ccc2c(n1)C(O)(CC)C1(CC1)C2 (some centres unmarked) [Compound 30]	1000 to 2000	≤ 5	100 to 1000		1000 to 2000							
C=CCn1c(=O)c2cnc(Nc3ccc(N4CCN(C)CC4)cc3)nc2n1-c1ccc2c(n1)C(O)C1(CC2)CC1 (centres unmarked) [Compound 4]	1000 to 2000	≤ 5	100 to 1000		1000 to 2000							
C=CCn1c(=O)c2cnc(Nc3ccc(N4CCN(C)CC4)cc3)nc2n1-c1ccc2c(n1)C(C)(O)C1(CC2)CC1 (centres unmarked) [Compound 6]	1000 to 2000	≤ 5	100 to 1000	97.2	100 to 1000							
[2H][C@@]1(O)c2nc(-n3c4nc(Nc5ccc(N6CCC(N(C)C)CC6)c(C)c5)ncc4c(=O)n3CC=C)ccc2CCC12CC2 [Compound 41b]				96.26								
C=CCn1c(=O)c2cnc(Nc3ccc(N4CCN(C)CC4)cc3)nc2n1-c1ccc2c3c(n(CC)c2n1)OCCC3 [Compound 17]	1000 to 2000	≤ 5	100 to 1000		100 to 1000							
C=CCn1c(=O)c2cnc(Nc3ccc(N4CCC(N(C)C)CC4)c(C)c3)nc2n1-c1ccc2c(n1)[C@H](O)C1(CC2)CC1 (single isomer, unassigned) [Compound 48b]	100 to 1000		100 to 1000		100 to 1000						73.67 ± 0.93	90.92 ± 0.49
C=CCn1c(=O)c2cnc(Nc3ccc(N4CCC5(CCN(C)CC5)CC4)c(C)c3)nc2n1-c1ccc2c(n1)[C@H](O)C1(CC2)CC1 (single isomer, unassigned) [Compound 61b]	100 to 1000	5 to 10	100 to 1000		100 to 1000	4460	490					
C=CCn1c(=O)c2cnc(Nc3ccc(N4CCN(C)CC4)cc3)nc2n1-c1ccc2c(n1)[C@@H](O)C1(CC2)CC1 (single isomer, unassigned) [Compound 4a]	2000 to 5000	≤ 5	1000 to 2000		2000 to 5000							
C=CCn1c(=O)c2cnc(Nc3ccc(N4CCC5(CCN(C)CC5)CC4)cc3)nc2n1-c1ccc2c(n1)[C@](C)(O)C1(CC2)CC1 (single isomer, unassigned) [Compound 44a]		≤ 5				1030	360					
C=CCn1c(=O)c2cnc(Nc3ccc(N4CCC(N(C)C)CC4)c(C)c3)nc2n1-c1ccc2c(n1)[C@@H](O)C1(CC2)CC1 (single isomer, unassigned) [Compound 41b]	100 to 1000	≤ 5	100 to 1000		100 to 1000	> 10000	550					
C=CCn1c(=O)c2cnc(Nc3ccc(N4CCC5(CCN(C)CC5)CC4)cc3)nc2n1-c1ccc2c(n1)[C@H](O)C1(CC2)CC1 [Compound 38b]	100 to 1000	5 to 10	100 to 1000		100 to 1000							
C=CCn1c(=O)c2cnc(Nc3ccc(N4CCC(N(C)C)CC4)cc3)nc2n1-c1ccc2c(n1)[C@@](C)(O)C1(CC2)CC1 [Compound 65a]	100 to 1000	5 to 10	100 to 1000		100 to 1000	> 10000	700	9.55	0.96 10^−6 cm/s	9.17 10^−6 cm/s		
